Test results published in US7825268B2, “Alkoxylactones, alkoxylactams and alkoxythiolactams for controlling processes based on microbial interaction” (Henkel AG & Co. KGaA, priority 2003, dated 2010).

System: Pseudomonas aeruginosa ATCC 15442
Assay: Biofilm test on glass surfaces (microscope slides, SafraninO staining)
Type: cell-based
Conditions: 6 hours incubation; for biofilm reduction (relative to the control without active substance): first range finding experiments (FIG. 1)
Method: (b) Use of Alkyloxylactones for the Reduction of Biofilms on Glass Surfaces.
The germ Pseudomonas aeruginosa ATCC 15442 is cultivated at 37° C. on Caso-Agar overnight. A CFU (Colony Eorming Unit) of solid medium is incubated in 50 ml Caso-broth at 37° C. for 7 hours and 150 rpm (1. passage). 100 μl germs from the washed liquid culture are carried over into 50 ml fresh Caso-nutrient medium and incubated at 37° C. for approximately 16 hours and 150 rpm. (2. Passage). A germ count of 10^6 CFU/ml is used from this second passage in the biofilm test. For the biofilm test, the germs in the above-mentioned concentration, together with a diluted complete medium (20 times with DGHM-water diluted TBY), are pipetted into a micro-titration plate (6-position chamber), which is used as the miniaturized biofilm test system. The active substances under test are added in the desired concentration to the mixture (3 ml). As controls, first, attempts were made with active substances, but without germs, as the active substances could already have an inherent color (negative control); secondly, diluted complete medium with germs, but without the active substances were also used as controls. In addition, 1 sterile glass plate (microscope slide), size 18×18, on the surface of which the biofilm growth is investigated, is placed into each of the 6-position chambers. For each starting material, triple determinations are carried out, i.e. three glass slides are investigated per starting material. The 6-position plates are shaken for 6 or 24 hours at 30° C. and 60 rpm. After the predetermined incubation times, 1 ml per starting material are removed for germ count determination, diluted in trypton-NaCl solution and plated out on Caso-Agar. The resulting plates are incubated for 24 hours at 37° C. and then counted. The slide glasses are taken out of the 6-positions to be dried at room temperature and then dyed in new 6-positions with 3 ml 0.01% SafraninO-solution (made up in sterile water) for 15 minutes. The colorant solution is then siphoned off, non-bound colorant is removed with water from the slide glasses and the colored slide glasses dried. The colored and dried surfaces of the slide glasses are scanned and evaluated using Corel Draw paint 9. In order to be able to subtract the background value (of the glass) from the measured value, additional untreated slide glasses are also scanned.

[1] = 100 ppm, DMSO control = 100% (FIG. 2)
[2] = 50 ppm and 100 ppm, control without active substance = 100% (FIG. 1)

Question: With CCCCCCCOC1C(=O)OCC1(C)C (stereo not drawn) [Example 188, Heptyloxypantolactone] as the molecule, how does the “biofilm reduction (with respect to the DMSO control)” value [1] read?
Answer: Its value is “more than 40%”.

Question: For CCCCCCCCO[C@H]1C(=O)OCC1(C)C [Example H33, a-Octyloxy-D-(−)-pantolactone], which “biofilm reduction (relative to the control without active substance)” value (100 ppm) is on record?
Answer: The value was “more than 30%”.

Question: How did the “effect on biofilm formation” value [2] turn out when CCCCOC1CCOC1=O (stereo not drawn) [Example H99, butyloxybutyrolactone] was run?
Answer: The value was “only a moderate effect”.

Question: How did the “effect on biofilm formation” value [2] turn out when CCCCOC1C(=O)OCC1(C)C (stereo not drawn) [Example H123, butyloxypantolactone] was run?
Answer: Its value is “only a moderate effect”.

Question: Which results are given for CCCCCCCCOC1CCOC1=O (stereo not drawn) [Example H128, a-Octyloxy-γ-butyrolactone]?
Answer: biofilm reduction (relative to the control without active substance) (100 ppm): approximately 40%; reduction in biofilm inhibition (on increasing the concentration of active substance, it precipitated out, result not shown): 20%

Question: CCCCCCCCCCCCCCCCOC1CCOC1=O (stereo not drawn) [hexadecylbutyrolactone, a-hexadecyloxy-γ-butyrolactone] was tested. Which “effect on biofilm formation” value [1] did it give?
Answer: The value was “best biofilm reduction”.

Question: How did the “effect on biofilm formation” value [1] turn out when O=C1OCCC1O (stereo not drawn) [hydroxybutyrolactone, Hydroxybutyrolactone, reference compound] was run?
Answer: Its value is “did not show any notable effect”.

Question: With CC1(C)COC(=O)C1O (stereo not drawn) [pantolactone, Pantolactone, reference compound] as the molecule, how does the “effect on biofilm formation” value [1] read?
Answer: Its value is “did not show any notable effect”.
